Columns and labels:
[1] = target: T1, Sodium/glucose cotransporter 2 (Homo sapiens) (UniProt P31639); conditions: 10 nM
T1 sequence (whole entry): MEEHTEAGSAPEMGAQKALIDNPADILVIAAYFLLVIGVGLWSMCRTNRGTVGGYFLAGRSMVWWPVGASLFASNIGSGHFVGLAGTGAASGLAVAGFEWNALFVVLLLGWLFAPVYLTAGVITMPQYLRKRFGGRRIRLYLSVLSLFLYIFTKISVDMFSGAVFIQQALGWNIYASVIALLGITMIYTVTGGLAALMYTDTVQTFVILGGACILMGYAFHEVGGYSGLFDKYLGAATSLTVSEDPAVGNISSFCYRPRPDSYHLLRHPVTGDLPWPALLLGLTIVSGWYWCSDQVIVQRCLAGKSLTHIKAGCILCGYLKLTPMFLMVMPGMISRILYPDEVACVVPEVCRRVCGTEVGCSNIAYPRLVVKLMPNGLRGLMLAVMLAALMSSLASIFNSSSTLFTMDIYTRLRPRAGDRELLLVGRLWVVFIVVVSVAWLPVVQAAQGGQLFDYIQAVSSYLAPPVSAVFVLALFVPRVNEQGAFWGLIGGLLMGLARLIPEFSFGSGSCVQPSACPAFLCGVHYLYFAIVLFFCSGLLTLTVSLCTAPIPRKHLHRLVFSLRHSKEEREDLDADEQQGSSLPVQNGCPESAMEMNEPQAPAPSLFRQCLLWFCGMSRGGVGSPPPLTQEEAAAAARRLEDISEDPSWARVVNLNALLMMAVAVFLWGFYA
Description: Inhibition of human SGLT2 expressed in HEK293.ETN cells assessed as methyl-alpha-D-[U-14C]glucopyranoside uptake at 10 nM by scintillation counting

[2] = target: T2, Sodium/glucose cotransporter 1 (Homo sapiens) (UniProt P13866); conditions: COS-7, 10 uM
T2 sequence (whole entry): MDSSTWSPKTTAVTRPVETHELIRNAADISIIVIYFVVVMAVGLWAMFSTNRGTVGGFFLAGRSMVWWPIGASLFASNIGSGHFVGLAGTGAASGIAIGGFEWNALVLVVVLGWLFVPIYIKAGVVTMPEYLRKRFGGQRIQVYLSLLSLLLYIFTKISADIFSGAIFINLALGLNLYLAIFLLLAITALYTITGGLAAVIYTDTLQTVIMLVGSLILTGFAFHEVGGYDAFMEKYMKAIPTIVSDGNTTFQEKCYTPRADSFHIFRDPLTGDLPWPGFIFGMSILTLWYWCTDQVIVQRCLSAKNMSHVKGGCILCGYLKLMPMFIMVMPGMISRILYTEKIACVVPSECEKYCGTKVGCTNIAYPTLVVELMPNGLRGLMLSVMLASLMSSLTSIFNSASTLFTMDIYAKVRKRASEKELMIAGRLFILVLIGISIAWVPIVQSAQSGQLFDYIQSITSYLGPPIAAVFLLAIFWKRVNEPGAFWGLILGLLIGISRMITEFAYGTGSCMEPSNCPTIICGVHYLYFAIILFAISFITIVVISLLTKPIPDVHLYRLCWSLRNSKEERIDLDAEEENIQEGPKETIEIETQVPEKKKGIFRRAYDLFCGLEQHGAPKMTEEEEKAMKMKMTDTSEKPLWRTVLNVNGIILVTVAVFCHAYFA
Description: Inhibition of human SGLT1 expressed in african green monkey COS7 cells assessed as methyl-alpha-D-[U-14C]glucopyranoside uptake at 10 uM by scintillation counting

CCOc1ccc(Cc2cc([C@@H]3O[C@H](CO)[C@@H](O)[C@H](O)[C@H]3O)ccc2Cl)cc1
inhibition [1]: 69.7%
inhibition [2]: 72.7%
